Source: the supplement of paper PMC11208160

Assay: recombinant UMI read abundance after kanamycin selection (control-corrected) (log10(CPM+1)); higher = more efficient recombination; extreme values may be limits of the assay; sequences stand for … in AGTGCAGAGAAAATCGGCCAGTTTTCTCTGCCTGCAGTCCGCATGCCGTGGGACCCCTTGGGTTCTAACCTGTTGCCTAGATTTATGCAGCGGACTGCCTTTCTCCCAAAGTGATAAACCGG…AGGTTGGTTTCACT; site = the 11-nt donor
In short: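 The measure is log10(CPM+1) for recombinant UMIs. These were PCR-amplified across the donor–target junction and sequenced after Escherichia coli carrying a donor and donor-binding-loop pair library and a target plasmid with T7-inducible IS621 bridge recombinase was plated on IPTG (0.07 mM) plus kanamycin or unselected. CPM were averaged over two replicates and scaled by control-derived factors.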
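Also: IS621 bridge recombinase in Escherichia coli cells against a fixed T5 target plasmid.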

| Sequence | recombinant UMI read abundance (log10) |
| --- | --- |
| TGGCCTTCATGGACCGGTTTTCCCGGTAATCCGTATTTGGT (site TCGCCTTCTAC) | 1.02 |
| TGGCCTTCATGGACCGGTTTTCCCGGTAATCCGTATTTGGT (site TGGCCTTCTAC) | 0.00327 |
| TGGCCTTCATGGACCGGTTTTCCCGGTAATCCGTATTTGGT (site TTGCCTTCTAC) | 0.00662 |
| TGGCTGCCATGGACCGGTTTTCCCGGTAATCCGTATTTGGT (site TGGCTGCCTAC) | 0.0264 |
| TGGGAGTCATGGACCGGTTTTCCCGGTAATCCGTATTTGCC (site AGGGAGTCTGG) | 0 |
| TGGGAGTCATGGACCGGTTTTCCCGGTAATCCGTATTTGCC (site CGGGAGTCTGG) | 0 |
| TGGGAGTCATGGACCGGTTTTCCCGGTAATCCGTATTTGCC (site GGGGAGTCTGG) | 0.0303 |
| TGGGAGTCATGGACCGGTTTTCCCGGTAATCCGTATTTGCC (site TGGGAGTCTGG) | 2.34 |
| TGGGGACCATGGACCGGTTTTCCCGGTAATCCGTATTTGCG (site TGGGGACCTCG) | 0.00873 |
| TGGGGTACATGGACCGGTTTTCCCGGTAATCCGTATTTGGG (site TGGGGTACTCC) | 0.0151 |
| TGGGTACCATGGACCGGTTTTCCCGGTAATCCGTATTTGTT (site TGGGTACCTAA) | 0.0105 |
| TGGGTATCATGGACCGGTTTTCCCGGTAATCCGTATTTGCA (site TGGGTATCTTG) | 1.83 |
| TGGGTCCCATGGACCGGTTTTCCCGGTAATCCGTATTTGGT (site TGGGTCCCTAC) | 0.00844 |
| TGGTAGGCATGGACCGGTTTTCCCGGTAATCCGTATTTGGT (site TGATAGGCTAC) | 0.0183 |
| TGGTAGGCATGGACCGGTTTTCCCGGTAATCCGTATTTGGT (site TGCTAGGCTAC) | 0.00286 |
| TGGTAGGCATGGACCGGTTTTCCCGGTAATCCGTATTTGGT (site TGGTAGGCTAC) | 0.848 |
| TGGTAGGCATGGACCGGTTTTCCCGGTAATCCGTATTTGGT (site TGTTAGGCTAC) | 0.307 |
| TGGTGATCATGGACCGGTTTTCCCGGTAATCCGTATTTGGG (site TGGTGATCTCC) | 0.238 |
| TGGTGGACATGGACCGGTTTTCCCGGTAATCCGTATTTGTT (site TGGTGGACTAA) | 0.734 |
| TGGTTATCATGGACCGGTTTTCCCGGTAATCCGTATTTGGT (site TGGTTATCTAC) | 1.78 |
| TGGTTCGCATGGACCGGTTTTCCCGGTAATCCGTATTTGGA (site TGGTTCGCTTC) | 0.00761 |
| TGGTTTCCATGGACCGGTTTTCCCGGTAATCCGTATTTGCA (site TGGTTTCCTTG) | 0 |
| TGTAAGACATGGACCGGTTTTCCCGGTAATCCGTATTTGCG (site TGTAAGACTCG) | 0.934 |
| TGTAAGCCATGGACCGGTTTTCCCGGTAATCCGTATTTGAC (site TGTAAGCCTGT) | 0 |
| TGTACACCATGGACCGGTTTTCCCGGTAATCCGTATTTGCC (site TGTACACCTGA) | 0 |

| Sequence | recombinant UMI read abundance (log10) |
| --- | --- |
| TGTACACCATGGACCGGTTTTCCCGGTAATCCGTATTTGCC (site TGTACACCTGC) | 0 |
| TGTACACCATGGACCGGTTTTCCCGGTAATCCGTATTTGCC (site TGTACACCTGG) | 0 |
| TGTACACCATGGACCGGTTTTCCCGGTAATCCGTATTTGCC (site TGTACACCTGT) | 0 |
| TGTACAGCATGGACCGGTTTTCCCGGTAATCCGTATTTGAA (site TGTACAGCTTT) | 0.369 |
| TGTACCACATGGACCGGTTTTCCCGGTAATCCGTATTTGTA (site TGTACCACTTA) | 0.131 |
| TGTAGACCATGGACCGGTTTTCCCGGTAATCCGTATTTGAC (site TGTAAACCTGT) | 0 |
| TGTAGACCATGGACCGGTTTTCCCGGTAATCCGTATTTGAC (site TGTACACCTGT) | 0 |
| TGTAGACCATGGACCGGTTTTCCCGGTAATCCGTATTTGAC (site TGTAGACCTGT) | 0 |
| TGTAGACCATGGACCGGTTTTCCCGGTAATCCGTATTTGAC (site TGTATACCTGT) | 0 |
| TGTAGGTCATGGACCGGTTTTCCCGGTAATCCGTATTTGAA (site TGTAGGTCTTT) | 0.238 |
| TGTAGGTCATGGACCGGTTTTCCCGGTAATCCGTATTTGGT (site TGTAGGTCTAC) | 0.355 |
| TGTATACCATGGACCGGTTTTCCCGGTAATCCGTATTTGAC (site TGTAAACCTGT) | 0 |
| TGTATACCATGGACCGGTTTTCCCGGTAATCCGTATTTGAC (site TGTACACCTGT) | 0 |
| TGTATACCATGGACCGGTTTTCCCGGTAATCCGTATTTGAC (site TGTAGACCTGT) | 0 |
| TGTATACCATGGACCGGTTTTCCCGGTAATCCGTATTTGAC (site TGTATACCTGT) | 0 |
| TGTCAGCCATGGACCGGTTTTCCCGGTAATCCGTATTTGGC (site TGTCAGCCTGC) | 0.0152 |
| TGTCCACCATGGACCGGTTTTCCCGGTAATCCGTATTTGAC (site TGTACACCTGT) | 0 |
| TGTCCACCATGGACCGGTTTTCCCGGTAATCCGTATTTGAC (site TGTCCACCTGT) | 0 |
| TGTCCACCATGGACCGGTTTTCCCGGTAATCCGTATTTGAC (site TGTGCACCTGT) | 0 |
| TGTCCACCATGGACCGGTTTTCCCGGTAATCCGTATTTGAC (site TGTTCACCTGT) | 0 |
| TGTCCAGCATGGACCGGTTTTCCCGGTAATCCGTATTTGTG (site TGTCCAGCTCA) | 0.0483 |
| TGTCCTACATGGACCGGTTTTCCCGGTAATCCGTATTTGTG (site TGTCCTACTCA) | 0.266 |
| TGTCGTCCATGGACCGGTTTTCCCGGTAATCCGTATTTGAG (site TGTCGTCCTCT) | 0.0062 |
| TGTGACGCATGGACCGGTTTTCCCGGTAATCCGTATTTGTG (site TGTGACGCTCA) | 0.239 |
| TGTGATGCATGGACCGGTTTTCCCGGTAATCCGTATTTGAC (site TGTGATGCTGT) | 1.65 |

| Sequence | recombinant UMI read abundance (log10) |
| --- | --- |
| TGTGCTGCATGGACCGGTTTTCCCGGTAATCCGTATTTGTA (site TGTGCTGCTTA) | 0.0197 |
| TGTGGCTCATGGACCGGTTTTCCCGGTAATCCGTATTTGCT (site TGTGGCTCTAG) | 1.33 |
| TGTGTGACATGGACCGGTTTTCCCGGTAATCCGTATTTGTC (site TGTGTGACTGA) | 0 |
| TGTTAACCATGGACCGGTTTTCCCGGTAATCCGTATTTGCT (site TGTTAACCTAG) | 0 |
| TGTTCACCATGGACCGGTTTTCCCGGTAATCCGTATTTGTA (site TGTTCACCTTA) | 0.00651 |
| TGTTCACCATGGACCGGTTTTCCCGGTAATCCGTATTTGTA (site TGTTCCCCTTA) | 0.104 |
| TGTTCACCATGGACCGGTTTTCCCGGTAATCCGTATTTGTA (site TGTTCGCCTTA) | 0.00766 |
| TGTTCACCATGGACCGGTTTTCCCGGTAATCCGTATTTGTA (site TGTTCTCCTTA) | 0.00688 |
| TGTTCCCCATGGACCGGTTTTCCCGGTAATCCGTATTTGAA (site TGTTCCCCTTA) | 0.0134 |
| TGTTCCCCATGGACCGGTTTTCCCGGTAATCCGTATTTGAA (site TGTTCCCCTTC) | 0.011 |
| TGTTCCCCATGGACCGGTTTTCCCGGTAATCCGTATTTGAA (site TGTTCCCCTTG) | 0 |
| TGTTCCCCATGGACCGGTTTTCCCGGTAATCCGTATTTGAA (site TGTTCCCCTTT) | 0.0201 |
| TGTTCCCCATGGACCGGTTTTCCCGGTAATCCGTATTTGGA (site TGTTCCCCTTA) | 0.0182 |
| TGTTCCCCATGGACCGGTTTTCCCGGTAATCCGTATTTGGA (site TGTTCCCCTTC) | 0.128 |
| TGTTCCCCATGGACCGGTTTTCCCGGTAATCCGTATTTGGA (site TGTTCCCCTTG) | 0.00301 |
| TGTTCCCCATGGACCGGTTTTCCCGGTAATCCGTATTTGGA (site TGTTCCCCTTT) | 0.02 |
| TGTTCCCCATGGACCGGTTTTCCCGGTAATCCGTATTTGTC (site TGTTCCCCTAA) | 0.0126 |
| TGTTCCCCATGGACCGGTTTTCCCGGTAATCCGTATTTGTC (site TGTTCCCCTCA) | 0.00896 |
| TGTTCCCCATGGACCGGTTTTCCCGGTAATCCGTATTTGTC (site TGTTCCCCTGA) | 1.16 |
| TGTTCCCCATGGACCGGTTTTCCCGGTAATCCGTATTTGTC (site TGTTCCCCTTA) | 0.0152 |
| TGTTCCTCATGGACCGGTTTTCCCGGTAATCCGTATTTGTC (site TGTTCCTCTGA) | 0.553 |
| TGTTCGGCATGGACCGGTTTTCCCGGTAATCCGTATTTGAC (site TGTTCGGCTGT) | 0.323 |
| TGTTCTTCATGGACCGGTTTTCCCGGTAATCCGTATTTGCC (site TGTTCTTCTGG) | 1.21 |
| TGTTGATCATGGACCGGTTTTCCCGGTAATCCGTATTTGAG (site TGTTGATCTCT) | 1.22 |
| TGTTTGGCATGGACCGGTTTTCCCGGTAATCCGTATTTGTG (site TATTTGGCTCA) | 0.0286 |
